Test results from the kinase profiling compilation of Christmann-Franck et al. (2016).

Tests used:
Assay in all cases: KINOMEscan competition binding
Conditions in all cases: compound 2.0 µM
RET (human) = RET (human) (UniProt P07949)
[1] = tested on: EGFR (human), P00533 [G719C]
MAP3K1 (human) = MAP3K1 (human) (UniProt Q13233)
PIK3CB (human) = PIK3CB (human) (UniProt P42338)
[2] = tested on: PIK3CA (human), P42336 [H1047L]
PTK6 (human) = PTK6 (human) (UniProt Q13882)
RAF1 (human) = RAF1 (human) (UniProt P04049)
TAOK1 (human) = TAOK1 (human) (UniProt Q7L7X3)
CAMK2B (human) = CAMK2B (human) (UniProt Q13554)
DAPK1 (human) = DAPK1 (human) (UniProt P53355)
MAP2K3 (human) = MAP2K3 (human) (UniProt P46734)
ERBB3 (human) = ERBB3 (human) (UniProt P21860)
STK17A (human) = STK17A (human) (UniProt Q9UEE5)
NEK7 (human) = NEK7 (human) (UniProt Q8TDX7)
SGK3 (human) = SGK3 (human) (UniProt Q96BR1)
PKN3 (M.tuberculosis) = PKN3 (M.tuberculosis) (UniProt Q6P5Z2)
TRPM6 (human) = TRPM6 (human) (UniProt Q9BX84)
MLTK (human) = MLTK (human) (UniProt Q9NYL2)
FGFR2 (human) = FGFR2 (human) (UniProt P21802)
NUAK2 (human) = NUAK2 (human) (UniProt Q9H093)
MAPK6 (human) = MAPK6 (human) (UniProt Q16659)
TAOK2 (human) = TAOK2 (human) (UniProt Q9UL54)
CPK1 (P.falciparum) = tested on: CPK1 (P.falciparum)
SRC (human) = SRC (human) (UniProt P12931)
FER (human) = FER (human) (UniProt P16591)
KDR (human) = KDR (human) (UniProt P35968)
RPS6KA5 KD2 (human) = RPS6KA5 KD2 (human) (UniProt O75582)
[3] = tested on: KIT (human), P10721 [A829P]
[4] = tested on: PIK3CA (human), P42336 [E542K]
MAPK3 (human) = MAPK3 (human) (UniProt P27361)
LIMK2 (human) = LIMK2 (human) (UniProt P53671)
[5] = tested on: EGFR (human), P00533 [T790M/L858R]
FGFR4 (human) = FGFR4 (human) (UniProt P22455)
[6] = biological target: TYK2 JH1 catalytic (human) (UniProt P29597)
BLK (human) = BLK (human) (UniProt P51451)
NEK3 (human) = NEK3 (human) (UniProt P51956)
VRK2 (human) = VRK2 (human) (UniProt Q86Y07)
PKN1 (human) = PKN1 (human) (UniProt Q16512)
SGK110 (human) = SGK110 (human) (UniProt P0C264)
MYLK2 (human) = MYLK2 (human) (UniProt Q9H1R3)
NTRK2 (human) = NTRK2 (human) (UniProt Q16620)
CSNK1A1 (human) = CSNK1A1 (human) (UniProt P48729)
[7] = tested on: PIK3CA (human), P42336 [C420R]
PIK3CA (human), P42336 [C420R], sequence (P42336 whole entry C420R, looked up): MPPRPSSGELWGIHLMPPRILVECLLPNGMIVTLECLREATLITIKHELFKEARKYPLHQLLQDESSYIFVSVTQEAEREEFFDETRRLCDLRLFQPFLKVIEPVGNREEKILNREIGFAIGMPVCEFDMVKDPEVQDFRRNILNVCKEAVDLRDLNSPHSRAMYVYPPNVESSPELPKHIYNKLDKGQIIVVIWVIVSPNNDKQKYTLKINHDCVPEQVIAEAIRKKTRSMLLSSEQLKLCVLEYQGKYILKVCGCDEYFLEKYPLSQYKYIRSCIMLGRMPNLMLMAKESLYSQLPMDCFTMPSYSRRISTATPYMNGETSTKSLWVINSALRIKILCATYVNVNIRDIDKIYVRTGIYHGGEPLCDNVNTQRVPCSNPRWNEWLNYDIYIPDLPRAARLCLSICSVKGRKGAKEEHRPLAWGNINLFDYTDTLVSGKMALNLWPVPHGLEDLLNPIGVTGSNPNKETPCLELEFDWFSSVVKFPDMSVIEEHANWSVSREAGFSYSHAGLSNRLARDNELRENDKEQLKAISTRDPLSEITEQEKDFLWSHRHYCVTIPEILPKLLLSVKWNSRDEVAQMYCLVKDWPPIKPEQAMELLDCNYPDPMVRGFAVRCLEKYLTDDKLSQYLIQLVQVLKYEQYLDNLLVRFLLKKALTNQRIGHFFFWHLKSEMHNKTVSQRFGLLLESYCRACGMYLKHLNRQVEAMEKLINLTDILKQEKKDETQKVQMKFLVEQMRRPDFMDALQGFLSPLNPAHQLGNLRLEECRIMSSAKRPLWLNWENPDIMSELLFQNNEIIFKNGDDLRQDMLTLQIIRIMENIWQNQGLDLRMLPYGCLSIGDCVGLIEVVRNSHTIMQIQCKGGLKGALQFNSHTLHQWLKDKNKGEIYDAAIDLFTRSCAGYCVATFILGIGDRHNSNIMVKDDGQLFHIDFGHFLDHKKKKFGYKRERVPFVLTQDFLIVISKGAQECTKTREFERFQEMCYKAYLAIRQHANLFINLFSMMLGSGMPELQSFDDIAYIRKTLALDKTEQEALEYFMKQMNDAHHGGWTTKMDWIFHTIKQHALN

SRC (human), sequence (P12931 whole entry, looked up): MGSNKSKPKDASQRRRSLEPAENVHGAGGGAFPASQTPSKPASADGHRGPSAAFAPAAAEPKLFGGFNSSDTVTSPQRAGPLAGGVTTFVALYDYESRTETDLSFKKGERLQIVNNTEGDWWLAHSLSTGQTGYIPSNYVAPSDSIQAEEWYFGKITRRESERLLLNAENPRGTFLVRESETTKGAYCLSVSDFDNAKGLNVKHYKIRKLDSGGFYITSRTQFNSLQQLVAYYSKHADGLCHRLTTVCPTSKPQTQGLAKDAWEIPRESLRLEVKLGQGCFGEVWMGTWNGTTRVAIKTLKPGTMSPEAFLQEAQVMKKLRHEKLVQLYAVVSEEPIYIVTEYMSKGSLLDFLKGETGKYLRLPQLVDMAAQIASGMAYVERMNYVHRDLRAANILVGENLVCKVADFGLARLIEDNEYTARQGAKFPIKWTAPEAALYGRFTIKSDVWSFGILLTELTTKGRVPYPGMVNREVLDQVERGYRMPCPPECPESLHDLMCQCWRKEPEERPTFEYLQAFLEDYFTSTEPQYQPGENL
NTRK2 (human), sequence (Q16620 whole entry, looked up): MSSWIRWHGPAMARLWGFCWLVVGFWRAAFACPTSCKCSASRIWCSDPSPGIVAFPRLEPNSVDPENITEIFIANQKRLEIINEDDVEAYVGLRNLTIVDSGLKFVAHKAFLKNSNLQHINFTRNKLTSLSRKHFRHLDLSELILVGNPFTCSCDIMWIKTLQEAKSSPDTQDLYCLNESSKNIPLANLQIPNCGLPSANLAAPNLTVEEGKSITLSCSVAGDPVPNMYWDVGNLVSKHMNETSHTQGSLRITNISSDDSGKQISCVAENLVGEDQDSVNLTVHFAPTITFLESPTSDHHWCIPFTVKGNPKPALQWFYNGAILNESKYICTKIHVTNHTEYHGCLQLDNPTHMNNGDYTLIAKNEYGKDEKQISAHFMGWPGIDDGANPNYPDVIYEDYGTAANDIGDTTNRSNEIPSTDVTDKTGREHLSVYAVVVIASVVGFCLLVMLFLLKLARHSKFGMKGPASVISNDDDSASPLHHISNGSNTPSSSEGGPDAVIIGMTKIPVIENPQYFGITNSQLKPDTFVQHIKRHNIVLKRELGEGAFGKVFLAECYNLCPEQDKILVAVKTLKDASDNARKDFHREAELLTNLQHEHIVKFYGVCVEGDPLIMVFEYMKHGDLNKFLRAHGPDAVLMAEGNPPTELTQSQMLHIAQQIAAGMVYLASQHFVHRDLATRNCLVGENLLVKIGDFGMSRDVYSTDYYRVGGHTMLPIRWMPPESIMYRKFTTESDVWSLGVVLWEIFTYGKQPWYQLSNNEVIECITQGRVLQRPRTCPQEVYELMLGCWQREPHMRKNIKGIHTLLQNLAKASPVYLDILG
KDR (human), sequence (P35968 whole entry, looked up): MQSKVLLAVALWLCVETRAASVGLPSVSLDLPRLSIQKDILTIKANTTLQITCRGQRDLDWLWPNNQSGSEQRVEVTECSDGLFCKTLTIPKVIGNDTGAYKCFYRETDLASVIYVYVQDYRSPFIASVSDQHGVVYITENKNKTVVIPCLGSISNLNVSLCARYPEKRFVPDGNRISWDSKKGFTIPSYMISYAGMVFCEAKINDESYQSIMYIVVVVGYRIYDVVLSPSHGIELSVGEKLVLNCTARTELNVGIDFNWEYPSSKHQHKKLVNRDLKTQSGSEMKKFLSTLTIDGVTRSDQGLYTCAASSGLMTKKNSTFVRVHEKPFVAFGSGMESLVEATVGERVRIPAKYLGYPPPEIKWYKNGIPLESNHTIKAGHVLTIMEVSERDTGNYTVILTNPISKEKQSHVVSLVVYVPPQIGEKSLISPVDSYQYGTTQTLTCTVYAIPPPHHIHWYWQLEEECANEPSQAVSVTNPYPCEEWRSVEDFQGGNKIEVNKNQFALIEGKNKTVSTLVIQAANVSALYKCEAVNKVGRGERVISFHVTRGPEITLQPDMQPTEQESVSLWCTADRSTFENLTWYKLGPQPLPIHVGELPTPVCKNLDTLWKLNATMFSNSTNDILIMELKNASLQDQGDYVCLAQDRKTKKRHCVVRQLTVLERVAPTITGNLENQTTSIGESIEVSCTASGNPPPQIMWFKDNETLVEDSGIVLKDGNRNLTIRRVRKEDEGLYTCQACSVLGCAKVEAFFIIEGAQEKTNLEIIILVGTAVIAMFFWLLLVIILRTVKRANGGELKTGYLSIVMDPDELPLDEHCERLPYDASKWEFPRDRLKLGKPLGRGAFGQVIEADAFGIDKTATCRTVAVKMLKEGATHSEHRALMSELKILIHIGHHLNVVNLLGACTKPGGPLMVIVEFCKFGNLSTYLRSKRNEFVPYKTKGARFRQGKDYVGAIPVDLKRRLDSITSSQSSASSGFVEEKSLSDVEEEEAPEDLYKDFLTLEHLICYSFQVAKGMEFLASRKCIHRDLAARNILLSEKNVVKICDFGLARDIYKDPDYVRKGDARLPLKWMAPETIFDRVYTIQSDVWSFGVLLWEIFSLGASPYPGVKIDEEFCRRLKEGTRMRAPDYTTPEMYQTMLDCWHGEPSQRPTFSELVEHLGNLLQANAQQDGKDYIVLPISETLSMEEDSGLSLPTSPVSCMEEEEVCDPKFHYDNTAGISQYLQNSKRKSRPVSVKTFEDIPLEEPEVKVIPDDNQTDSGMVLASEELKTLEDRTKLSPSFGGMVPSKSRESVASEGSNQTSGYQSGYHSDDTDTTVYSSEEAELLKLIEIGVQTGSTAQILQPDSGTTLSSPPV
NEK7 (human), sequence (Q8TDX7 whole entry, looked up): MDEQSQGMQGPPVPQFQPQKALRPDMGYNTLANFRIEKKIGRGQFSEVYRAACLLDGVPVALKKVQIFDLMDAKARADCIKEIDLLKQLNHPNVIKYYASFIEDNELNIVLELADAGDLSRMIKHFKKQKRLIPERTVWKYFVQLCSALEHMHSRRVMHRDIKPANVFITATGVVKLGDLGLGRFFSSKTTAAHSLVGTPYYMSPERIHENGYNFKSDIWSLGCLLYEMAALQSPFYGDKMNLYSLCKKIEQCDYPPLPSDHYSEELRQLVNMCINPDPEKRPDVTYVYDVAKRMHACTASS
PIK3CA (human), P42336 [H1047L], sequence (P42336 whole entry H1047L, looked up): as the sequence (P42336 whole entry C420R, looked up) above, with R420C, H1047L counted along it
FGFR4 (human), sequence (P22455 whole entry, looked up): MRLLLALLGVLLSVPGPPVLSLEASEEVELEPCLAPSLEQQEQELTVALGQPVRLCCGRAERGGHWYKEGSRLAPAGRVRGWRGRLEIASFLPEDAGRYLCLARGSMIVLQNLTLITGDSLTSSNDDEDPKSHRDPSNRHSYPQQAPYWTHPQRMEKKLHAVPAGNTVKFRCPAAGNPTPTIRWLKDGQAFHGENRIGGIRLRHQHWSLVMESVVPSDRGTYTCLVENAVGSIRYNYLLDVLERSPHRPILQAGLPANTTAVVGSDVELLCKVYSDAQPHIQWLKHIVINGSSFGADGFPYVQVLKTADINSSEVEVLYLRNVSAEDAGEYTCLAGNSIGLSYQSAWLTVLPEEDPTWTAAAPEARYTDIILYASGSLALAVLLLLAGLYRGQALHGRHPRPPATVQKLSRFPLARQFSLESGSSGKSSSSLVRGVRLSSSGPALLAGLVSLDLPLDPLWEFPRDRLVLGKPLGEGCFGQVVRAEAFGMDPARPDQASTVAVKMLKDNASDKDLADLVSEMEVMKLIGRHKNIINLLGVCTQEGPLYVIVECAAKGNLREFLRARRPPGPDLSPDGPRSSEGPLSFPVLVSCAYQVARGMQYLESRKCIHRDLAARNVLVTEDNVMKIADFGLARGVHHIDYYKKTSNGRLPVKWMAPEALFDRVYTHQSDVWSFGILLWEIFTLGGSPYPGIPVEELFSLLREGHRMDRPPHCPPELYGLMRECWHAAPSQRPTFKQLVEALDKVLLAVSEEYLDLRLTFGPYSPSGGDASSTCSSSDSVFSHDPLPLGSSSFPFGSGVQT
PIK3CA (human), P42336 [E542K], sequence (P42336 whole entry E542K, looked up): as the sequence (P42336 whole entry C420R, looked up) above, with R420C, E542K counted along it

Question: `N#Cc1ccc2ncnc(NCCc3ccc4ccccc4c3)c2c1` was tested. Which kinase still bound, per cent of control (RET (human)) did it give?
Answer: 90%

Question: What about the kinase still bound, per cent of control [1] of the same compound?
Answer: 96%

Question: And the kinase still bound, per cent of control (MAP3K1 (human))?
Answer: 92%

Question: What about the kinase still bound, per cent of control (PIK3CB (human)) of the same compound?
Answer: 39%

Question: What about the kinase still bound, per cent of control [2] of the same compound?
Answer: 100%

Question: And the kinase still bound, per cent of control (PTK6 (human))?
Answer: 96%

Question: And the kinase still bound, per cent of control (RAF1 (human))?
Answer: 100%

Question: And the kinase still bound, per cent of control (TAOK1 (human))?
Answer: 96%

Question: What about the kinase still bound, per cent of control (CAMK2B (human)) of the same compound?
Answer: 88%

Question: What about the kinase still bound, per cent of control (DAPK1 (human)) of the same compound?
Answer: 89%

Question: What about the kinase still bound, per cent of control (MAP2K3 (human)) of the same compound?
Answer: 86%

Question: What about the kinase still bound, per cent of control (ERBB3 (human)) of the same compound?
Answer: 100%

Question: What about the kinase still bound, per cent of control (STK17A (human)) of the same compound?
Answer: 100%

Question: And the kinase still bound, per cent of control (NEK7 (human))?
Answer: 100%

Question: And the kinase still bound, per cent of control (SGK3 (human))?
Answer: 100%

Question: And the kinase still bound, per cent of control (PKN3 (M.tuberculosis))?
Answer: 100%

Question: And the kinase still bound, per cent of control (TRPM6 (human))?
Answer: 100%

Question: What about the kinase still bound, per cent of control (MLTK (human)) of the same compound?
Answer: 100%

Question: And the kinase still bound, per cent of control (FGFR2 (human))?
Answer: 90%

Question: And the kinase still bound, per cent of control (NUAK2 (human))?
Answer: 77%

Question: And the kinase still bound, per cent of control (MAPK6 (human))?
Answer: 91%

Question: What about the kinase still bound, per cent of control (TAOK2 (human)) of the same compound?
Answer: 83%

Question: And the kinase still bound, per cent of control (CPK1 (P.falciparum))?
Answer: 95%

Question: What about the kinase still bound, per cent of control (SRC (human)) of the same compound?
Answer: 94%

Question: And the kinase still bound, per cent of control (FER (human))?
Answer: 100%

Question: And the kinase still bound, per cent of control (KDR (human))?
Answer: 86%

Question: And the kinase still bound, per cent of control (RPS6KA5 KD2 (human))?
Answer: 100%

Question: And the kinase still bound, per cent of control [3]?
Answer: 89%

Question: And the kinase still bound, per cent of control [4]?
Answer: 84%

Question: What about the kinase still bound, per cent of control (MAPK3 (human)) of the same compound?
Answer: 95%

Question: What about the kinase still bound, per cent of control (LIMK2 (human)) of the same compound?
Answer: 94%

Question: What about the kinase still bound, per cent of control [5] of the same compound?
Answer: 100%

Question: What about the kinase still bound, per cent of control (FGFR4 (human)) of the same compound?
Answer: 100%

Question: And the kinase still bound, per cent of control [6]?
Answer: 93%

Question: And the kinase still bound, per cent of control (BLK (human))?
Answer: 65%

Question: What about the kinase still bound, per cent of control (NEK3 (human)) of the same compound?
Answer: 100%

Question: And the kinase still bound, per cent of control (VRK2 (human))?
Answer: 100%

Question: What about the kinase still bound, per cent of control (PKN1 (human)) of the same compound?
Answer: 100%

Question: What about the kinase still bound, per cent of control (SGK110 (human)) of the same compound?
Answer: 79%

Question: What about the kinase still bound, per cent of control (MYLK2 (human)) of the same compound?
Answer: 99%

Question: What about the kinase still bound, per cent of control (NTRK2 (human)) of the same compound?
Answer: 98%

Question: And the kinase still bound, per cent of control (CSNK1A1 (human))?
Answer: 87%

Question: What about the kinase still bound, per cent of control [7] of the same compound?
Answer: 100%
